Source: ChEMBL document CHEMBL4507268 (2021)

Tests used:
Settings in all cases: Compound concentration 1.0 uM
[1] = target: T1, Aurora kinase C (Homo sapiens) (UniProt Q9UQB9)
T1 sequence (whole entry): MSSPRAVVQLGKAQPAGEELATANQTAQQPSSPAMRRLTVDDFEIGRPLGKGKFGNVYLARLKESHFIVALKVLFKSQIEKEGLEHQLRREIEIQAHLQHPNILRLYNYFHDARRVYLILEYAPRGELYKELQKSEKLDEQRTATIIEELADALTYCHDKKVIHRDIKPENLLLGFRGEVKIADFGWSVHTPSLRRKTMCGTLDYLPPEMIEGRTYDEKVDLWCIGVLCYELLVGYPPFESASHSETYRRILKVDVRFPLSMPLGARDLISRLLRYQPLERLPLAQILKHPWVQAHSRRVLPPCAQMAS

[2] = target: Calcium/calmodulin-dependent protein kinase kinase 2 (Homo sapiens) (UniProt Q96RR4)
[3] = target: Cyclin-dependent kinase 1/cyclin B (Homo sapiens) (UniProt P06493+P14635+Q8WWL7+O95067)
[4] = target: Cyclin-dependent kinase 2/cyclin E (Homo sapiens) (UniProt P24864+P24941+O96020)
[5] = target: Cyclin-dependent kinase-like 3 (Homo sapiens) (UniProt Q8IVW4)
Sequence of Cyclin-dependent kinase-like 3 (Homo sapiens) (Q8IVW4 whole entry, looked up): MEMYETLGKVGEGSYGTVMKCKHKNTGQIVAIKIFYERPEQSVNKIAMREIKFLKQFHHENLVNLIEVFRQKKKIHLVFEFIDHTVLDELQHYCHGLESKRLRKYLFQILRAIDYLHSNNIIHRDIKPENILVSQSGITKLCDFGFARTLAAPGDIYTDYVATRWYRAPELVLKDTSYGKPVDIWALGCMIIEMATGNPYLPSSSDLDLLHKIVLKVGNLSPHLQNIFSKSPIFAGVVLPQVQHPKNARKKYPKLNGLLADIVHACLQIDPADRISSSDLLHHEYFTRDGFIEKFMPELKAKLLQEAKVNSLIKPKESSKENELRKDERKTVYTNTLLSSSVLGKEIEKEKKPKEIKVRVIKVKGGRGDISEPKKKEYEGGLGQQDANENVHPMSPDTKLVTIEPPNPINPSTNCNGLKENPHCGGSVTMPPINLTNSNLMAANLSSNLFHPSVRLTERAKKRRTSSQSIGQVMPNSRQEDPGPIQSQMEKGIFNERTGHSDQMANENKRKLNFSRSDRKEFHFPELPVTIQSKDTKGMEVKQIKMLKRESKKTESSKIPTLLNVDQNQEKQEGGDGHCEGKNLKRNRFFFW

[6] = target: Cyclin-dependent kinase-like 4 (Homo sapiens) (UniProt Q5MAI5)
[7] = target: Casein kinase I isoform gamma-1 (Homo sapiens) (UniProt Q9HCP0)
[8] = target: Homeodomain-interacting protein kinase 1 (Homo sapiens) (UniProt Q86Z02)
Sequence of Homeodomain-interacting protein kinase 1 (Homo sapiens) (Q86Z02 whole entry, looked up): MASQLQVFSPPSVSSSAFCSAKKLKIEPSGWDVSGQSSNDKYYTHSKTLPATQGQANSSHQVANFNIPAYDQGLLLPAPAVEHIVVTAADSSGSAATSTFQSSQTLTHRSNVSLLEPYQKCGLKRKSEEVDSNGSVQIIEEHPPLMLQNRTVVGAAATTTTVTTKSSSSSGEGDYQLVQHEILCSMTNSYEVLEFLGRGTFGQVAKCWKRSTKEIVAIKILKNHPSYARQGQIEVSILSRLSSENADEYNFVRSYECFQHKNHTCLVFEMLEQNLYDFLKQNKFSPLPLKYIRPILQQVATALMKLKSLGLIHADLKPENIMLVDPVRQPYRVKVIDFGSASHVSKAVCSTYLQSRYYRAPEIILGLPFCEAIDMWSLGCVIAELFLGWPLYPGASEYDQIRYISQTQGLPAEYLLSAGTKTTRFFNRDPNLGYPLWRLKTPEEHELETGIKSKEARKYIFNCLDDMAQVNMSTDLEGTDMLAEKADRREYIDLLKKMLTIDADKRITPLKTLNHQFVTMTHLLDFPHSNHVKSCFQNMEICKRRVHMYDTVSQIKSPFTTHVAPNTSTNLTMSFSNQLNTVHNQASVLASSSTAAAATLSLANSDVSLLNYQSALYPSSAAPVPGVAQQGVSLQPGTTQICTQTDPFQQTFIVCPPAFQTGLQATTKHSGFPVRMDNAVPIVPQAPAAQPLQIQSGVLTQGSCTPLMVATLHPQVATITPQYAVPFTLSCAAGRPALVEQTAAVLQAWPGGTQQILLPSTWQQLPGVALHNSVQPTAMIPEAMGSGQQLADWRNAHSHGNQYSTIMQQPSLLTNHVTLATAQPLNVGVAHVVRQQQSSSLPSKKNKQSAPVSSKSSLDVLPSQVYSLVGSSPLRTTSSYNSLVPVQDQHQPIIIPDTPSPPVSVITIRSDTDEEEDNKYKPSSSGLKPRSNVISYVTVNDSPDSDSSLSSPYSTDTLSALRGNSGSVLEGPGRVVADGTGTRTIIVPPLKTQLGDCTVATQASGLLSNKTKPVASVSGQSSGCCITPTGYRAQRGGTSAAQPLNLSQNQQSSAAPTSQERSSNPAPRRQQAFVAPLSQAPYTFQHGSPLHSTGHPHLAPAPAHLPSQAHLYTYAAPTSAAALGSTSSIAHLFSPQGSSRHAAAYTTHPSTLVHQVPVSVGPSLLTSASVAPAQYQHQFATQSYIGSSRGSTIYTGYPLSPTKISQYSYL

[9] = target: Vascular endothelial growth factor receptor 2 (Homo sapiens) (UniProt P35968)
Sequence of Vascular endothelial growth factor receptor 2 (Homo sapiens) (P35968 whole entry): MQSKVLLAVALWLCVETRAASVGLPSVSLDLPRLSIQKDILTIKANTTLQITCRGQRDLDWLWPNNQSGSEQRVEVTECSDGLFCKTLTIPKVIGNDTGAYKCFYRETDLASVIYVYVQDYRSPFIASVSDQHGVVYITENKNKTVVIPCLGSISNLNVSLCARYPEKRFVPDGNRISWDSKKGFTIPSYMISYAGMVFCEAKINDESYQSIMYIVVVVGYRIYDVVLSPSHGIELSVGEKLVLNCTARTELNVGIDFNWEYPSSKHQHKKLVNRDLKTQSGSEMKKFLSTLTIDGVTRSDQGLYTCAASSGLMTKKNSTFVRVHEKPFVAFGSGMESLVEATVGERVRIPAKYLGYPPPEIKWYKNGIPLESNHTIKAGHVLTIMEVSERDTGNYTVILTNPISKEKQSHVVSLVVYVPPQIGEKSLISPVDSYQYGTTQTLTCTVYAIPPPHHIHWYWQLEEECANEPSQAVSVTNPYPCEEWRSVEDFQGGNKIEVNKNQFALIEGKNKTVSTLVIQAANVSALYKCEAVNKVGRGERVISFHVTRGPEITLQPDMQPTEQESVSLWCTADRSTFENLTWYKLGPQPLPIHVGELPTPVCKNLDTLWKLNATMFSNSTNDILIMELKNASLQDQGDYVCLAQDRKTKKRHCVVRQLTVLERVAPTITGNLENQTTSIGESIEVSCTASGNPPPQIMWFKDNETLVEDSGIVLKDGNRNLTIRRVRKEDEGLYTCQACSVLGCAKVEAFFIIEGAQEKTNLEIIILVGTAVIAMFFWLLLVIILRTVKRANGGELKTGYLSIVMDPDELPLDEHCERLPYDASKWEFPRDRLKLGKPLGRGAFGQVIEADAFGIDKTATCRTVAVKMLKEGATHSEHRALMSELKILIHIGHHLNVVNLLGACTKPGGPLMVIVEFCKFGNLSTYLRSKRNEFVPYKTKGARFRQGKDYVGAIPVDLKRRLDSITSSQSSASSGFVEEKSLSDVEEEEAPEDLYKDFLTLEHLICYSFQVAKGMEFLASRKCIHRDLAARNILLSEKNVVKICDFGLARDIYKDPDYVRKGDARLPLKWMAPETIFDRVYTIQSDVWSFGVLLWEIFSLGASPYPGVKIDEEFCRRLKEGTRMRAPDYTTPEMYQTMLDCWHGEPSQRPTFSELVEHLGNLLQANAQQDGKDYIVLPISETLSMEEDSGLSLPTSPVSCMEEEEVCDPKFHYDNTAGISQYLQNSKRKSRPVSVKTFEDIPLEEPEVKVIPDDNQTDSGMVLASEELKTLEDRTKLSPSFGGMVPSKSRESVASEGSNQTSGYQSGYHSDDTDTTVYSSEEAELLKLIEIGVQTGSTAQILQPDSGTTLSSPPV

[10] = target: Tyrosine-protein kinase Lck (Homo sapiens) (UniProt P06239)
Sequence of Tyrosine-protein kinase Lck (Homo sapiens) (P06239 2-509 limits assumed): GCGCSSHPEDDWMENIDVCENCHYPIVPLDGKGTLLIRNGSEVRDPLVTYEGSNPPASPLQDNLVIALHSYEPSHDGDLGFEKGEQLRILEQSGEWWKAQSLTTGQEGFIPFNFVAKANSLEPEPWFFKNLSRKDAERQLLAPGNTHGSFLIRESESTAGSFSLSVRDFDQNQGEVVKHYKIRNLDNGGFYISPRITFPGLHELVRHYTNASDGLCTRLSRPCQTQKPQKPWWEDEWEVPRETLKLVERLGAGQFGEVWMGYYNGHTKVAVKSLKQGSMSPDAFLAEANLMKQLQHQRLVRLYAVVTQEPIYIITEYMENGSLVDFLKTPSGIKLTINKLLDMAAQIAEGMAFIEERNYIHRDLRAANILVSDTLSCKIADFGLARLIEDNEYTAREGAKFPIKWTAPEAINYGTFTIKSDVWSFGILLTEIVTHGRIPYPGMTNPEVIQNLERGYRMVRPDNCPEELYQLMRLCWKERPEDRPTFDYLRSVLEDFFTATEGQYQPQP

[11] = target: T2, Serine/threonine-protein kinase STK11 (Homo sapiens) (UniProt Q15831)
T2 sequence (whole entry): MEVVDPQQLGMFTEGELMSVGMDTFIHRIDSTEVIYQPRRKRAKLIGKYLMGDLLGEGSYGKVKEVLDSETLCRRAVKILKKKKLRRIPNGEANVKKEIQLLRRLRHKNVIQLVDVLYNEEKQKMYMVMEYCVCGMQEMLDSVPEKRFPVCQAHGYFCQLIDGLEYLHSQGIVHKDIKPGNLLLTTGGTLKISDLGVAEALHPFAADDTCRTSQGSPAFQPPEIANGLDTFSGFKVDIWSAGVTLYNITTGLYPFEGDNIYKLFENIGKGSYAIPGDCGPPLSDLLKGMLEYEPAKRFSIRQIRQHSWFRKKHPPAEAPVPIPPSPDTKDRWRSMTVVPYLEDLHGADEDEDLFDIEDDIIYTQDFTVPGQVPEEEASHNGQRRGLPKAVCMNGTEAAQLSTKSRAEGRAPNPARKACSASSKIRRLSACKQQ

[12] = target: Mitogen-activated protein kinase kinase kinase 11 (Homo sapiens) (UniProt Q16584)
[13] = target: Serine/threonine-protein kinase NIM1 (Homo sapiens) (UniProt Q8IY84)
[14] = target: Serine/threonine-protein kinase PAK 1 (Homo sapiens) (UniProt Q13153)
Sequence of Serine/threonine-protein kinase PAK 1 (Homo sapiens) (Q13153 whole entry): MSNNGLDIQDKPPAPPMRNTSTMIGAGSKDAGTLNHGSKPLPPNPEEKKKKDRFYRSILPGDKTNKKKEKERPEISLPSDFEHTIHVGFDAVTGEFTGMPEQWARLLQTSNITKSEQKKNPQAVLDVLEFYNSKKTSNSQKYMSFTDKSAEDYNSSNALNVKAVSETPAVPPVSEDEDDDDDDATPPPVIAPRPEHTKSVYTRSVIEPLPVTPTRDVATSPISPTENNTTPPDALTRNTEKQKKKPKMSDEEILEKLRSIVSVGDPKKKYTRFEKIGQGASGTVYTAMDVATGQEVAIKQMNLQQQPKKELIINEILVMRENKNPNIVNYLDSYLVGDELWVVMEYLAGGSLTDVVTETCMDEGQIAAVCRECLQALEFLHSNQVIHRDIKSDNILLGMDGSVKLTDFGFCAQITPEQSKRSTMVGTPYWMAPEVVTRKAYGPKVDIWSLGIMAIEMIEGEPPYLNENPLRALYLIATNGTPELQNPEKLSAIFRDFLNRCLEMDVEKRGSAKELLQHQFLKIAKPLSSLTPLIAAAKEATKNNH

[15] = target: Serine/threonine-protein kinase PAK 6 (Homo sapiens) (UniProt Q9NQU5)
[16] = target: Serine/threonine-protein kinase pim-2 (Homo sapiens) (UniProt Q9P1W9)
Sequence of Serine/threonine-protein kinase pim-2 (Homo sapiens) (Q9P1W9 whole entry, looked up): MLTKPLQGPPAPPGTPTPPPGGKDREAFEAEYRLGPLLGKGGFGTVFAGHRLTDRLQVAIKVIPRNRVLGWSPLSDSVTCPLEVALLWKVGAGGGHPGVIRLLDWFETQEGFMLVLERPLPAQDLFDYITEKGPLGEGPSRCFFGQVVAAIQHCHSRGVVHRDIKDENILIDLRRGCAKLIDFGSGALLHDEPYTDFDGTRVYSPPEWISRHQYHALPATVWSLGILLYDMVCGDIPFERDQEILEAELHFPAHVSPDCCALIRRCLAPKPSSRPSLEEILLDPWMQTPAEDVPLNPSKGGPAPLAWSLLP

[17] = target: cAMP-dependent protein kinase catalytic subunit alpha (Homo sapiens) (UniProt P17612)
[18] = target: T3, MAP kinase-activated protein kinase 5 (Homo sapiens) (UniProt Q8IW41)
T3 sequence (whole entry): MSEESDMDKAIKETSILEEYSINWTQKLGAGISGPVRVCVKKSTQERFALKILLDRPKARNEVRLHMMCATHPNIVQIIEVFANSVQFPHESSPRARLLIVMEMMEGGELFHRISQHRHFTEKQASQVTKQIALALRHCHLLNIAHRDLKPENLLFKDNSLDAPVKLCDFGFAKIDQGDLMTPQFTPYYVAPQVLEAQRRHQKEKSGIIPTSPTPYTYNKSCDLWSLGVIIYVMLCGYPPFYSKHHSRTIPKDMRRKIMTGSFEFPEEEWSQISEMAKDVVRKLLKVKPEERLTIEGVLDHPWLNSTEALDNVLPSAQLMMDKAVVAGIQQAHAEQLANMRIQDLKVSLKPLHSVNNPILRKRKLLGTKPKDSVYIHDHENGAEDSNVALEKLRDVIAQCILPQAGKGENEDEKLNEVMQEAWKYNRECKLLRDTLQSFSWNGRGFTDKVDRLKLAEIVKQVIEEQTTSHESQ

[19] = target: Mitogen-activated protein kinase 11 (Homo sapiens) (UniProt Q15759)
Sequence of Mitogen-activated protein kinase 11 (Homo sapiens) (Q15759 whole entry): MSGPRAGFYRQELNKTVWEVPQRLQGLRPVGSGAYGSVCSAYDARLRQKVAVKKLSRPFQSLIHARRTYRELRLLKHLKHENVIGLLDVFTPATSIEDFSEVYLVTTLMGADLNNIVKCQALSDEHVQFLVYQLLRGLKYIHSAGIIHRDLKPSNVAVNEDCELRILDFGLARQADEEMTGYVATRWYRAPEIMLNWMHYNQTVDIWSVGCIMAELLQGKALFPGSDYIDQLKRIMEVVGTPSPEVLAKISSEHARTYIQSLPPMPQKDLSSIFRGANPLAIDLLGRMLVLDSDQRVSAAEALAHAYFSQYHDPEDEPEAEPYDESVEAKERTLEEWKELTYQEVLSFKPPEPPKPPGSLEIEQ

[20] = target: T4, Tyrosine-protein kinase Tec (Homo sapiens) (UniProt P42680)
T4 sequence (whole entry): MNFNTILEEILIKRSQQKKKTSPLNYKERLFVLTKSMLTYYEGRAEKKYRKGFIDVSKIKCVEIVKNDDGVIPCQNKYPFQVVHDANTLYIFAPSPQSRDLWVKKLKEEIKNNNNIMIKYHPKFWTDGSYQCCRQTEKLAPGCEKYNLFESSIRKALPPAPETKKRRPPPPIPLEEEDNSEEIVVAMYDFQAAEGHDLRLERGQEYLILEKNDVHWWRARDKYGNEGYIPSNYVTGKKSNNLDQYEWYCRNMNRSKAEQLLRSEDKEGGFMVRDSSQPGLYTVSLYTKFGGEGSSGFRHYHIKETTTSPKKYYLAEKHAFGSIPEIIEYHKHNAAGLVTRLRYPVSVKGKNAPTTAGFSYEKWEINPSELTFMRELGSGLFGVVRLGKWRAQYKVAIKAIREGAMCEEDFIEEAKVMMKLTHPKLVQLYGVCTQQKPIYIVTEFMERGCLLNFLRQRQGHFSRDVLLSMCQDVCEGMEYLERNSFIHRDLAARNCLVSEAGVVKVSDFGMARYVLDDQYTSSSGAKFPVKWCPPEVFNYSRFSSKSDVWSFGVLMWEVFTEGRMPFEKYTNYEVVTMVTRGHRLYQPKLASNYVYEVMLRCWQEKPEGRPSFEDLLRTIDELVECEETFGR

Measured: % residual kinase activity

CN1CCN(c2cnc3c(C4CCN(C(=O)c5ccc(OC(F)(F)F)cc5N)CC4)ncnc3c2)CC1 [BAY-885]
inactive: [1] 95% | [2] 102% | [3] 101% | [4] 99% | [5] 113% | [6] 103% | [7] 105% | [8] 116% | [9] 100% | [10] 105% | [11] 104% | [12] 112% | [13] 108% | [14] 95% | [15] 103% | [16] 110% | [17] 99% | [18] 109% | [19] 103% | [20] 112%
